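Method: 48-hour compound exposure of cells in 96-well plates, five concentrations, linear interpolation of endpoints. At the GI50, growth is halved. The concentration for full growth arrest is given as TGI.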
What was measured:
Test in all cases: NCI anticancer screen, dose series, 48 h
[1] = test system: 786-0 renal
[2] = test system: A549 NSCLC
[3] = test system: CAKI-1 renal
[4] = test system: HT29 colon
[5] = test system: IGROV1 ovarian
[6] = test system: MDA-MB-231 breast
[7] = test system: MOLT-4 leukemia
[8] = test system: NCI/ADR-RES ovarian
[9] = test system: SF-295 CNS
[10] = test system: SW-620 colon

Structure (SMILES) | GI50 [1] [µM] | TGI [1] [µM] | GI50 [2] [µM] | TGI [2] [µM] | GI50 [3] [µM] | TGI [3] [µM] | GI50 [4] [µM] | TGI [4] [µM] | GI50 [5] [µM] | TGI [5] [µM] | GI50 [6] [µM] | TGI [6] [µM] | GI50 [7] [µM] | TGI [7] [µM] | GI50 [8] [µM] | TGI [8] [µM] | GI50 [9] [µM] | TGI [9] [µM] | GI50 [10] [µM] | TGI [10] [µM]
Cc1cccc2c3c(sc12)C(c1ccc(Cl)cc1)C(C#N)=C(/N=C/c1ccc(Cl)cc1)O3 (centres undefined) | 0.653 | 27.8 | 0.489 | > 100 | 0.265 | 20.7 | 0.388 | > 52 | 0.413 | > 100 | 0.754 | 20.6 | 0.517 | > 100 | 0.307 | 4.27 | 0.267 | 2.37 | 0.434 | > 100
O=c1c2cc(Br)ccc2oc2ccc(Br)cc12 | – | > 100 | – | > 100 | – | > 100 | – | > 100 | – | > 100 | – | > 100 | – | > 100 | – | > 100 | – | > 100 | – | > 100
O=C1N=C2c3c(sc4c3CCCC4)N=CN2C1N=Nc1ccc(Cl)cc1 (centres undefined) | 39.5 | > 100 | 42.2 | > 100 | 30.9 | > 100 | 11.7 | 39.8 | 49.6 | > 100 | 20.1 | > 100 | 13 | 53 | 26.2 | > 100 | 25.4 | 86.2 | 23.1 | > 100
CC(C)(C)Cn1c(N)nc2ccc(-c3[nH]c(C(C)(C)C)nc3-c3ccc(F)cc3)nc21 | 9.75 | 25.9 | 8.38 | 28.7 | 3.91 | 21.1 | 4.52 | 19.3 | 2.66 | 16.4 | 12.3 | 29.5 | 7.7 | 36.9 | 8.67 | 33.1 | 7.82 | 22 | 13.6 | 30.1
O=C(Nc1ccccc1Cl)c1cnc2ccc(C3CCNCC3)cn12 | 3.18 | > 100 | 11.5 | > 100 | 1.51 | 12 | 1.77 | 18.6 | 0.626 | 14.6 | 2.48 | 59.7 | 55.9 | > 100 | 39.2 | > 100 | 24.8 | > 83.9 | > 100 | > 100
CCN(CC)c1ccc(/C=N/NC(=O)c2ccc(Nc3ccnc(C(F)(F)F)c3)cc2)c(O)c1 | 0.188 | 0.447 | 0.439 | > 100 | 0.268 | 2.07 | 0.339 | 1.68 | 0.158 | – | 0.396 | 3.97 | 0.117 | 1.38 | 0.598 | 17.6 | 0.122 | 0.927 | 0.404 | > 64.7
